Measurements published in BigSolDB 2.1.

C1CC1N1C2C3N(C4CC4)C1C1N(C4CC4)C(C(N1C1CC1)N3C1CC1)N2C1CC1
solubility (mole fraction)
Conditions	278.15 K	283.15 K	288.15 K	293.15 K	298.15 K	303.15 K	308.15 K	313.15 K	318.15 K
in 1,1,2-trichloroethane	0.00866	0.00991	0.0113	0.0127	0.0143	0.0161	0.0182	0.0206	0.0234
in 1,2-dichloroethane	0.00228	0.00279	0.00343	0.00421	0.00513	0.00624	0.00752	0.00903	0.0108
in acetone	0.000269	0.000333	0.000411	0.000503	0.000611	0.000736	0.000875	0.00103	0.0012
in acetonitrile	5.71e-05	6.68e-05	7.76e-05	8.91e-05	0.000101	0.000114	0.000128	0.000143	0.000159
in chloroform	0.0231	0.0263	0.0297	0.0332	0.0367	0.0405	0.0444	–	–
in cyclohexane	–	0.00931	0.0111	0.0132	0.0157	0.0186	0.0218	0.0255	0.0297
in dichloromethane	0.0129	0.0147	0.0169	0.0194	0.0222	0.0255	0.0291	–	–
in ethanol	0.000225	0.000283	0.00036	0.000452	0.000557	0.000675	0.000805	0.000951	0.00111
in ethyl acetate	0.00121	0.0014	0.00168	0.00204	0.00249	0.00305	0.00373	0.00455	0.00552
in methanol	4.66e-05	7.71e-05	0.00011	0.000144	0.00018	0.000219	0.000259	0.0003	0.000341
in n-hexane	0.00406	0.00447	0.00507	0.00588	0.00692	0.00819	0.00973	0.0116	0.0138
in tetrachloromethane	0.0269	0.0298	0.0333	0.0372	0.0415	0.0461	0.0511	0.0568	0.0632
